Target: T1, N-acylethanolamine acid amidase (NAAA) (Homo sapiens, UniProt Q02083)
T1 construct: purified human NAAA
T1 sequence (Q02083 29-125): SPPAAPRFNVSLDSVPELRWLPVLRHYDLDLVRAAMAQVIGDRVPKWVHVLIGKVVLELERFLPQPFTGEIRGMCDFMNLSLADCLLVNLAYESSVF
T1 sequence (Q02083 126-359): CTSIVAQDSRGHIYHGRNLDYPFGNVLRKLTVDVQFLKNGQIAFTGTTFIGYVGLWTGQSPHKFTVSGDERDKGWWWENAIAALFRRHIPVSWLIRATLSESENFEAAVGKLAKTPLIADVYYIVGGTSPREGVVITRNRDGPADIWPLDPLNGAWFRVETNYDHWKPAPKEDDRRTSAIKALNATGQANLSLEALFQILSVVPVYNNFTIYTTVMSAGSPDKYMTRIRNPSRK
Assay: fluorogenic PAMCA hydrolysis assay with purified human NAAA, […] min preincubation, 8-point curve
Format: biochemical

IC50: 20 nM
Compound: COc1ccc(-c2ccc(COC3CC(N=C=S)C3)nc2)cc1F (stereo not shown) [AM11095]

From publication PMC9789040, “Inhibition of triple negative breast cancer-associated inflammation and progression by N- acylethanolamine acid amide hydrolase (NAAA)” (Scientific Reports, 2022)
